{"source": "patent US20240344145A1", "about": "“PHARMACOGENOMICS SCORE TO MAKE DECISIONS ON THERAPY AUGMENTATION IN AML” (University of Florida Research Foundation, Incorporated, priority 2021, published 2024)", "key": {"[1]": {"test_system": "AML patients (1 month to 29.9 years old)", "settings": "previously reported, cited from earlier work"}, "[2]": {"test_system": "AML patients (1 month to 29.9 years old)", "assay": "COG-AAML0531 clinical trial, ADE vs ADE+GO arms: MRD1, EFS and OS overall and by ACS10 score and CD33 SNP", "format": "in vivo, human", "settings": "low ACS10 score", "method": "AAML0531 clinical trial enrolled previously untreated AML patients (1 month to 29.9 years old) who were randomized to receive ADE (cytarabine 100 mg/m^2/dose twice per day for […] alongside with daunorubicin and etoposide-equivalent to LDAC arm of St. Jude AML02) with or without the addition of 1 dose in induction 1 and 1 dose in intensification of CD33-targeting drug gemtuzumab ozogamicin (ADE+GO arm). Genotype data on 10 SNPs that were part of the ACS10 score in the discovery cohort was generated in 931 patients (n=465 in standard ADE arm and n=466 in ADE+GO arm). […] In subsequent analysis to check whether ACS10 score has impact on the GO addition, the evaluation of patients from the ADE+GO arm was also considered.\nThe association of MRD1, EFS, and OS was evaluated with ACS10 scores in the AML02 discovery cohort and the AAML0531 validation cohort. The Kaplan-Meier method was used to estimate the EFS and OS probabilities for well-defined groups of patients. Cox regression models were used to associate ACS10 with EFS and OS and used logistic regression models to associate ACS10 with MRD1. The Wilcoxon rank-sum test and Kruskal-Wallis test were used to compare medians of numeric variables across groups. Chi-square tests and Fisher's exact test were used to evaluate the association among pairs of categorical variables. All p-values are two-sided. […]"}}, "data": [{"substance": "gemtuzumab ozogamicin [GO]", "values": [{"measurement": "benefit from addition of GO to standard chemotherapy", "setting": "[1]; CD33 rs12459419 CT/TT genotypes, ADE+GO versus ADE", "value": "derived no benefit from addition of GO"}, {"measurement": "survival (EFS and DFS) with addition of GO to standard chemotherapy", "setting": "[1]; CD33 rs12459419 homozygous CC genotype", "value": "significantly better survival"}, {"measurement": "benefit from adding GO (EFS and OS)", "setting": "[2]; CD33 rs12459419 CC genotype", "value": "benefit from adding GO"}, {"measurement": "benefit from addition of GO (EFS and OS)", "setting": "[2]; CT/TT genotype for CD33 rs12459419", "value": "do not benefit from addition of GO"}]}]}
